Data: patent US10195185B2, “3-(1H-imidazo[4,5-C]pyridin-2-yl)-1H-pyrazolo[4,3-B]pyridines and therapeutic uses thereof” (Samumed, LLC, priority 2015, dated 2019)

How the values were obtained:
Format in all cases: cell-based
[1] = system: Wnt activity (Wnt-responsive human Sp5 promoter, TCF/LEF binding sites) in SW480 colon carcinoma cells; test: Wnt activity screening assay: Sp5-Luc luciferase reporter gene in SW480 cells; details: for EC50: 10-point dose-response from 10 μM, incubated overnight; for inhibition at 10 µM: given for EC50 of >10 μM, read-out: percent inhibition at 10 μM
Procedure, shortened: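 Wnt-driven firefly luciferase in SW480 colon carcinoma cells reports pathway activity after overnight compound exposure (10 μM top concentration, 3-fold steps). Signal is normalized to DMSO controls.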

SW480 colon cancer cells = test: Cell viability assay (CellTiter-Blue), four days; details: Homo sapiens, 96 h; for inhibition at 10 µM: read-out: percent inhibition at 10 μM (given for EC50 of >10 μM); for EC50: CellTiter-Blue cell viability
Procedure, shortened: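 Resazurin reduction (Ex 560/Em 590 nm, ~3 h reagent incubation) served as the viability read-out after SW480 cells were treated for four days at 37 °C. Doses ran from 10 μM down to 0.0045 μM in eight 1:3 steps. Curves fitted non-linearly for EC50, else % inhibition at 10 μM reported.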

[2] = system: Primary human fibroblasts derived from IPF patients (LL29 cells) treated with TGF-β1; test: Inhibition of the fibrotic process: αSMA staining in TGF-β1 treated fibroblasts; details: Fibroblast, 96 h, LL29 fibroblasts treated with TGF-β1, 4 days; for inhibition at 10 µM: read-out: percent inhibition in brackets beside EC50 >10 μM
Procedure, shortened: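 EC50 values come from non-linear fits of the αSMA-positive percentage among SYTOX-excluded live cells, normalized to TGF-β1 plus DMSO controls, or appear as % inhibition at 10 μM when above 10 μM. Fibrosis was induced in IPF-derived LL29 fibroblasts by 20 ng/mL TGF-β1 over 4 days, with 1:2 compound dilutions from 10 μM.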

| EC50 [1] [nM] | EC50 (SW480 colon cancer cells) [µM] | SMILES | inhibition at 10 µM [1] [%] | inhibition at 10 µM (SW480 colon cancer cells) [%] | EC50 [2] [nM] | inhibition at 10 µM [2] [%] |
| --- | --- | --- | --- | --- | --- | --- |
| > 10000 | > 10 | c1cc(-c2nccc3[nH]c(-c4n[nH]c5ccc(-c6cnccn6)nc45)nc23)ccn1 [Compound 584, 5-(Pyrazin-2-yl)-3-(4-(pyridin-4-yl)-1H-imidazo[4,5-c]pyridin-2-yl)-1H-pyrazolo[4,3-b]pyridine] | 5.7 | 2.1 | > 10000 | 0 |
| > 10000 | > 10 | CS(=O)(=O)NCc1cc(F)cc(-c2nccc3[nH]c(-c4n[nH]c5ccc(-c6cncnc6)nc45)nc23)c1 [Compound 503, N-(3-Fluoro-5-(2-(5-(pyrimidin-5-yl)-1H-pyrazolo[4,3-b]pyridin-3-yl)-1H-imidazo[4,5-c]pyridin-4-yl)benzyl)methanesulfonamide] | 18.7 | 0.8 | > 10000 | 0 |
| 2370 | 7.14 | Cc1ccncc1-c1ccc2[nH]nc(-c3nc4c(-c5cc(F)cc(CNS(C)(=O)=O)c5)nccc4[nH]3)c2n1 [Compound 481, N-(3-Fluoro-5-(2-(5-(4-methylpyridin-3-yl)-1H-pyrazolo[4,3-b]pyridin-3-yl)-1H-imidazo[4,5-c]pyridin-4-yl)benzyl)methanesulfonamide] | – | – | 5000 | – |
| > 10000 | > 10 | c1ccc(COc2cncc(-c3ccc4[nH]nc(-c5nc6c(-c7ccncc7)nccc6[nH]5)c4n3)c2)cc1 [Compound 582, 5-(5-(Benzyloxy)pyridin-3-yl)-3-(4-(pyridin-4-yl)-1H-imidazo[4,5-c]pyridin-2-yl)-1H-pyrazolo[4,3-b]pyridine] | 18.1 | 10.9 | > 10000 | 0 |
| > 10000 | > 10 | Fc1cccc(-c2nccc3[nH]c(-c4n[nH]c5ccc(-c6cnccn6)nc45)nc23)c1 [Compound 520, 3-(4-(3-Fluorophenyl)-1H-imidazo[4,5-c]pyridin-2-yl)-5-(pyrazin-2-yl)-1H-pyrazolo[4,3-b]pyridine] | 12.2 | 6.6 | > 10000 | 2.4 |
| > 10000 | > 10 | c1cc(-c2nccc3[nH]c(-c4n[nH]c5ccc(-c6cncc(OC7CCNCC7)c6)nc45)nc23)ccn1 [Compound 576, 5-(5-(Piperidin-4-yloxy)pyridin-3-yl)-3-(4-(pyridin-4-yl)-1H-imidazo[4,5-c]pyridin-2-yl)-1H-pyrazolo[4,3-b]pyridine] | 17.9 | 24.6 | 2390 | – |
| 843 | 2.78 | Fc1cccc(-c2nccc3[nH]c(-c4n[nH]c5ccc(-c6ccncc6)nc45)nc23)c1 [Compound 18, 3-(4-(3-Fluorophenyl)-1H-imidazo[4,5-c]pyridin-2-yl)-5-(pyridin-4-yl)-1H-pyrazolo[4,3-b]pyridine] | – | – | 4220 | – |
| > 10000 | 9.29 | NC1CN(c2cncc(-c3ccc4[nH]nc(-c5nc6c(-c7cccc(F)c7)nccc6[nH]5)c4n3)n2)C1 [Compound 510, 1-(6-(3-(4-(3-Fluorophenyl)-1H-imidazo[4,5-c]pyridin-2-yl)-1H-pyrazolo [4,3-b]pyridin-5-yl)pyrazin-2-yl)azetidin-3-amine] | 16.3 | – | > 10000 | 10.3 |
| 379 | 0.944 | CN(C)c1cncc(-c2ccc3[nH]nc(-c4nc5c(-c6cccc(F)c6)nccc5[nH]4)c3n2)c1 [Compound 7] | – | – | 387 | – |
| 803 | 0.455 | CN(C)c1cncc(-c2ccc3[nH]nc(-c4nc5c(-c6cccs6)nccc5[nH]4)c3n2)c1 [Compound 343, N,N-Dimethyl-5-(3-(4-(thiophen-2-yl)-1H-imidazo[4,5-c]pyridin-2-yl)-1H-pyrazolo[4,3-b]pyridin-5-yl)pyridin-3-amine] | – | – | 477 | – |
| > 10000 | > 10 | CS(=O)(=O)NCc1cc(F)cc(-c2nccc3[nH]c(-c4n[nH]c5ccc(-c6cncc(NC(=O)c7ccccc7)c6)nc45)nc23)c1 [Compound 487, N-(5-(3-(4-(3-Fluoro-5-(methylsulfonamidomethyl)phenyl)-1H-imidazo[4,5-c]pyridin-2-yl)-1H-pyrazolo[4,3-b]pyridin-5-yl)pyridin-3-yl)benzamide] | 0 | 0 | > 10000 | 0 |
| 1060 | 0.641 | CN(C)Cc1cncc(-c2ccc3[nH]nc(-c4nc5c(-c6cccc(F)c6)nccc5[nH]4)c3n2)c1 [Compound 13, 1-(5-(3-(4-(3-Fluorophenyl)-1H-imidazo[4,5-c]pyridin-2-yl)-1H-pyrazolo [4,3-b]pyridin-5-yl)pyridin-3-yl)-N,N-dimethylmethanamine] | – | – | 1690 | – |
| > 10000 | > 10 | CCCC(=O)Nc1cncc(-c2ccc3[nH]nc(-c4nc5c(-c6cc(F)cc(CNS(C)(=O)=O)c6)nccc5[nH]4)c3n2)c1 [Compound 493, N-(5-(3-(4-(3-Fluoro-5-(methylsulfonamidomethyl)phenyl)-1H-imidazo[4,5-c]pyridin-2-yl)-1H-pyrazolo[4,3-b]pyridin-5-yl)pyridin-3-yl)butyramide] | 15.1 | 4.3 | > 10000 | 0 |
| 523 | > 10 | Oc1cncc(-c2ccc3[nH]nc(-c4nc5c(-c6cccc(F)c6)nccc5[nH]4)c3n2)c1 [Compound 517, 5-(3-(4-(3-Fluorophenyl)-1H-imidazo[4,5-c]pyridin-2-yl)-1H-pyrazolo[4,3-b]pyridin-5-yl)pyridin-3-ol] | – | 3.5 | 1560 | – |
| > 10000 | > 10 | Cc1ccc(-c2nccc3[nH]c(-c4n[nH]c5ccc(-c6cncc(NC(=O)C(C)C)c6)nc45)nc23)s1 [Compound 401, N-(5-(3-(4-(5-Methylthiophen-2-yl)-1H-imidazo[4,5-c]pyridin-2-yl)-1H-pyrazolo [4,3-b]pyridin-5-yl)pyridin-3-yl)isobutyramide] | 17.2 | 2.5 | 2520 | – |

| SMILES | EC50 [1] [nM] | EC50 (SW480 colon cancer cells) [µM] | inhibition at 10 µM [1] [%] | inhibition at 10 µM (SW480 colon cancer cells) [%] | EC50 [2] [nM] | inhibition at 10 µM [2] [%] |
| --- | --- | --- | --- | --- | --- | --- |
| Fc1cccc(-c2nccc3[nH]c(-c4n[nH]c5ccc(C6=CCNCC6)nc45)nc23)c1 [Compound 506, 3-(4-(3-Fluorophenyl)-1H-imidazo[4,5-c]pyridin-2-yl)-5-(1,2,3,6-tetrahydropyridin-4-yl)-1H-pyrazolo[4,3-b]pyridine] | > 10000 | > 10 | 17.6 | 0 | 1170 | – |
